From patent US20240124455A1, “TRICYCLIC COMPOUNDS AS ANTICANCER AGENTS” (JINGRUI BIOPHARMA CO., LTD., priority 2021, published 2024)

Tests used:
[1] = system: MV-4-11; assay: Cell proliferation assay (Cell Titer-Glo); format: cell-based; conditions: MV-4-11 cells, compound treatment 72 h, CellTiter-Glo
Experimental: In order to evaluate the activity of the compound on cells, the Cell Titer-Glo assay was used for detection. The cells were incubated in a 37° C. incubator and treated with compounds for 72 hours. At the end of the reaction, the number of living cells in the culture is measured by quantitative determination of ATP. ATP is an indicator of the metabolism of living cells. With Cell Titer-Glo, the luminescence signal produced by cell lysis is proportional to the amount of ATP present, and the amount of ATP is directly proportional to the number of cells in the culture. These signal ratios reflect the cell activity of the compound at that concentration in the well under this condition. • (1) Seeding cells • Trypsinize cells and count cell density with the automated cell counter. • Dilute cell suspension to required density according to seeding density. • Seed 100 ul cells into 96-well plate in growth medium according to the plate map. Medium only is used as background control (Min). • Incubate at 37° C., 5% CO2 overnight. • (2) Compound treatment • Make 200× compound solution in DMSO. • Dilute compounds with growth medium to 3× final concentration by addition of 3 ul 200× compounds to 197 ul growth medium. • Add 50 ul diluted compounds to cells and incubate at 37° C., 5% CO2 for 72 h. • (3) Measurement • Equilibrate the assay plate to room temperature prior to measurement. • Add 40 ul of CellTiter-Glo® Reagent into each well. • Mix contents for 2 minutes on an orbital shaker to induce cell lysis. • Incubate at room temperature for 60 minutes to stabilize luminescent signal. • Record luminescence on Envision. • (4) Data analysis • (1) Using GraphPad Prism 5. • (2) % Inh=(Max signal−Compound signal)/(Max signal−Min signal)×100. • (3) Max signal was obtained from the action of DMSO. • (4) Min signal was obtained from the action of medium only.

[2] = target: T1, BRD4 (BD1) (Homo sapiens, UniProt O60885); assay: BRD4 (BD1) binding assay (HTRF); conditions: BRD4 (D1) with GST tag and biotin-labeled acetylated peptide
T1 construct: purchased Reaction Biology Company RD-11-157
Experimental: The BRD4 (BD1) biochemical binding assay was carried out by Sundia MediTech Co., Ltd. • Materials and suppliers: • BRD4(D1): Reaction Biology Company; catalog #: RD-11-157; batch #1319 • Positive control compound: AZD5153; Selleck, catalog #, S8344, batch #, 1 • Peptide: GL China; catalog #329934; batch #, P171229-JQ329934 • DMSO: Sigma; catalog #, D8418-1L; batch #, SHBG3288V • OptiPlate-384: PerkinElmer; catalog #6007270, batch #, 8240-17211 • Instruments: • Centrifuge (manufacturer: Eppendorf, model: 5430) • Microplate reader (manufacturer: Perkin Elmer, model: EnVision) • Sonic pipetting system (manufacturer: Labcyte, model: Echo® 550) • In the assay, the HTRF method uses an anti-GST antibody with a cryptate chelate-labeled europium element as the donor, and the d2 or XL665-labeled streptavidin (having high affinity with biotin) as the acceptor to study the interaction between BRD4 (D1) with GST tag and biotin-labeled acetylated peptide. When the donor and acceptor are close to each other due to the binding of BRD4 (D1) to the biotin-labeled peptide, the excitation of the donor triggers fluorescence resonance energy transfer (FRET) to the acceptor, which then emits fluorescence at a specific wavelength (665 nm). • General assay procedure: 20 nL of compound solution was transferred to the 384-well plate by Labcyte Echo® 550 liquid handler, and 5 μL of BRD4 (BD1) solution from Reaction Biology Company, RD-11-157, or the assay buffer was added to each well. After centrifuge for 1 minute and incubating 15 minutes at rt, the 5 μL peptide (GL China, Catalog #329934, Batch, P171229-JQ329934) was added to each well. After centrifuge for 1 minute at 1000 rpm, 10 μL detect solution was added to each well. After incubating for 60 minutes, centrifuging 1 minute, the signals were measured by Microplate reader. Data analysis: The inhibition percentage in the presence of the compound was calculated based on the following formula:
% Inhibition=(Signal_max−Signal sample/Signal_max−Signal_min)×100
Fitting the data in GrphaPad Prism V5.0 software with log(inhibitor) vs. response-Variable slope, the IC50 was obtained.

IC50 [1] [nM]	IC50 [2] [nM]	IC50 ([1]; Homo sapiens, MV4-11, 72 h) [nM]	Compound
–	0.18	0.75	Cc1nnn(C)c1-c1cnc2c3nn(C)c(C(C)(C)O)c3n([C@H](c3ccccn3)C3CCOCC3)c2c1 [Example 8]
–	0.51	1.52	COC(=O)c1c2c(nn1C)c1ncc(-c3c(C)nnn3C)cc1n2C(c1ncccc1F)C1CCOCC1 (stereo not shown) [Example 9, Methyl 6-(1,4-dimethyl-1H-1,2,3-triazol-5-yl)-4-((3-fluoropyridin-2-yl)(tetrahydro-2H-pyran-4-yl)methyl)-2-methyl-2,4-dihydropyrazolo[3′,4′:4,5]pyrrolo[3,2-b]pyridine-3-carboxylate]

More lines, now with the values behind:

Compound	IC50 [1] [nM]	IC50 [2] [nM]	IC50 ([1]; Homo sapiens, MV4-11, 72 h) [nM]
[2H]C([2H])([2H])c1nnn(C)c1-c1cnc2c3nn(C([2H])([2H])[2H])c(C(C)(C)O)c3n(C(c3ncccc3F)C3CCOCC3)c2c1 (single isomer, unassigned) [Example 24, 2-(4-((3-Fluoropyridin-2-yl)(tetrahydro-2H-pyran-4-yl)methyl)-2-(methyl-d3)-6-(1-methyl-4-(methyl-d3)-1H-1,2,3-triazol-5-yl)-2,4-dihydropyrazolo[3′,4′:4,5]pyrrolo[3,2-b]pyridin-3-yl)propan-2-ol]	0.47	0.17	–
Cc1nnn(C)c1-c1cnc2c3nn(C)c(C(C)(C)O)c3n([C@@H](c3ccccn3)C3CCOCC3)c2c1 [Example 7]	–	8.4	139
[2H]C([2H])([2H])c1nnn(C)c1-c1cnc2c3nn(C)c(C(=O)OC)c3n(C(c3ncccc3F)C3CCOCC3)c2c1 (stereo not shown) [Example 17, Methyl 4-((3-fluoropyridin-2-yl)(tetrahydro-2H-pyran-4-yl)methyl)-2-methyl-6-(1-methyl-4-(methyl-d3)-1H-1,2,3-triazol-5-yl)-2,4-dihydropyrazolo[3′,4′:4,5]pyrrolo[3,2-b]pyridine-3-carboxylate]	–	0.59	3.3
